Values after ≈ are worked out from the molar mass of the structure shown.

The subject of data set [1] is HSV-1. Nature of the data set: Inhibition of HSV-1 replication (anti-viral effect), PFU determination. The data set is classed as cell-based. To be noted: Human alphaherpesvirus 1; HSV-1 replication in CV-1 cells, 10 PFU per cell, 24 hours after infection. The method, then: 16mm dia. wells are seeded each with 2 x 10⁵ CV-1 cells in 1ml aliquots of MEM10C. After three days, the cells are infected with HSV-1 at 10 PFU (Plaque Forming Units) per cell. The inoculum is replaced, after adsorption for 1.5 hours, in pairs of wells with 0. 5 ml aliquots of MEM5C containing the test concentrations of each of AH-1 and AH-2. Four hours from infection, the cells from two wells are scraped into the medium and frozen to -80°C. [The average of PFU/ml of these samples forms the base for calculating net virus production]. The remaining samples are collected in pairs of wells 24 hours after infection and are also frozen to -80°C. For determination of PFU/ml, each sample is diluted to 10⁻⁸.

For a further data set, the system named is CV-1 cells. Nature of the data set: Inhibition of growth of CV-1 cells (cytotoxic effect). Particulars: for inhibition of growth: CV-1 cells, 0.1, 0.5, 1, 5, 10 and 50 µg/ml; for IC50: Primates, 96 h, CV-1 cell growth, counted four days after seeding. The data set is classed as cell-based, monkey. How it is done: CV-1 cells are seeded into 16 mm dia. wells at 10⁴ cells per well in 1ml aliquots of MEM10C. The following day, the medium is replaced with 0.5 ml aliquots of MEM10C containing the test concentrations of compounds AH-1 and AH-2, i. e. 0, 0.1, 0.5, 1, 5, 10 and 50 µg/ml. Determinations are all carried out in duplicate. Four days after seeding, the cells are trypsinised and counted. Percentage inhibition (%I) relative to the wells without test compound (i.e. the controls) is calculated and the IC₅₀ determined.

For data set [2], the system named is HSV-1. Nature of the data set: Viral plaque reduction in HSV-1 infected CV-1 cells (Table 3). On the set-up: key: (-) indicates no reduction in viral plaque production; (+) indicates a 50% reduction in viral plaque production; (++) indicates an 80% reduction in viral plaque production. It counts as cell-based. The method, then: (§1) This test is performed according to standard procedures for determination of cytotoxicity of a compound againt virus infected cells. In the present case, CV-1 (monkey kidney fibroblast cells) are infected with HSV-1 and the compounds of the invention tested against these at varying concentrations.
(§2) The numbers show the toxicity throughout the CV-1 cells sheet. (-) indicates no reduction in viral plaque production (+) indicates a 50% reduction in viral plaque production (++) indicates an 80% reduction in viral plaque production.

In data set [3] the test system is CV-1 (monkey kidney fibroblast cells). The data set is described as follows: Toxicity throughout the CV-1 cell sheet (Table 3). The data set is classed as cell-based. How it is done:
as §1, §2

Data set [4] relates to L-1210 cells (mouse lymphoma). Nature of the data set: Activity against L-1210 cells. It counts as cell-based.
Data set [5] relates to VSV (Vesicular Stomatitis Virus). It counts as cell-based.

As for `Cc1c2c(c3c4c1C(C1OC1(C)C)CC(C)C4CCC3C)OCO2` (centres unmarked) [AH-1, Helioporin A], the results for the IC50 in the data set with HSV-1 [1] and in the data set with CV-1 cells were 4 mg/L (≈ 12.2 µM) and above 50 mg/L, respectively. Further, the inhibition of growth entry in the data set with CV-1 cells is reported as “no inhibition of growth”. For the same molecule, the “reduction in viral plaque production” value in the data set with HSV-1 [2] (5µl of 500µg/ml in MeOH/Acet) is given as “-”; in the data set with HSV-1 [2] (10µl of 500µg/ml in MeOH/Acet), “-”; with HSV-1 [2] (20µl of 500µg/ml in MeOH/Acet), “+ ((+) indicates a 50% reduction in viral plaque production)”; in the data set on HSV-1 [2] (40µl of 500µg/ml in MeOH/Acet), “++ ((++) indicates an 80% reduction in viral plaque production)”. Further, the “toxicity throughout the CV-1 cells sheet” value in data set [3] (5µl of 500µg/ml in MeOH/Acet), in data set [3] (10µl of 500µg/ml in MeOH/Acet), in data set [3] (20µl of 500µg/ml in MeOH/Acet) and in data set [3] (40µl of 500µg/ml in MeOH/Acet) was 0 in each case. The “activity against L-1210 cells” value in data set [4] is “no activity”. In addition, the “activity against VSV” value in data set [5] was “no activity”.
`Cc1cc2c(c3c1OCO3)C(C)CCC2C(C)CC(=O)CC(C)C` (centres unmarked) [AH-2, Helioporin B]: the concentration for half-maximal inhibition (IC50) with HSV-1 [1] is 1.6 mg/L (≈ 4.84 µM); in the data set on CV-1 cells it was above 50 mg/L. In addition, in the data set on CV-1 cells, the inhibition of growth result is listed as “no inhibition of growth”. Besides, the “reduction in viral plaque production” value is reported as “-” with HSV-1 [2] (5µl of 500µg/ml in MeOH/Acet), “-” in the data set on HSV-1 [2] (10µl of 500µg/ml in MeOH/Acet), “+ ((+) indicates a 50% reduction in viral plaque production)” in the data set on HSV-1 [2] (20µl of 500µg/ml in MeOH/Acet) and “++ ((++) indicates an 80% reduction in viral plaque production)” in the data set with HSV-1 [2] (40µl of 500µg/ml in MeOH/Acet). In addition, the “toxicity throughout the CV-1 cells sheet” value in data set [3] (5µl of 500µg/ml in MeOH/Acet), in data set [3] (10µl of 500µg/ml in MeOH/Acet), in data set [3] (20µl of 500µg/ml in MeOH/Acet) and in data set [3] (40µl of 500µg/ml in MeOH/Acet) was 0 each time. Also, the “activity against L-1210 cells” value in data set [4] is reported as “no activity”. Further, in data set [5], the “activity against VSV” value is “no activity”.

As a reminder, the IC50 is the concentration that inhibits the measured activity by half.

Source of the values: EP0432983A2 (priority 1989, dated 1991).
